Data as given in patent US6638921B1, “Pyridoxal-5-phosphate derivatives as HIV integrase inhibitors” (Pharmacor Inc., priority 2002, dated 2003).
Counter-ions that a name gives are not always drawn. Like-named read-outs stand apart in the source and are kept apart here.

Tests used:
MT-4 cell line = experiment: Cytotoxicity assay in vitro (MTT, virus omitted); type: cell-based
Experimental: (§1) To evaluate the EC50 of our compounds, various drug concentrations are incubated with the infected cell for six days and then the metabolic activity of the cells is monitored by the MTT assay. (See A. J. Japour et al, Antimicrobial Agents and Chemotherapy, 37, 1095-1101, 1993 and R. Pauwels et al. Journal of Virological Methods, 20, 309-321, 1988).
(§2) We use the laboratory viral strain NL4.3 as wild type virus and the cell line used is MT-4 which is a T-cell line highly sensitive to HIV-1. We also use some WT clinical strains. To address the resistance issue we assay the inhibitors with NL4.3 mutants which are designed to be resistant to specific commercially available inhibitors. The following reagents were obtained through the AIDS Research and Reference Reagent Program, division of AIDS, NIAID, NIH: pNL4.3 from Dr. Malcolm Martin; MT-4 cell line from Dr. Douglas Richman. Wild type (WT) clinical strains were obtained from “Laboratoire de santé publique du Québec”.
The same MTT assay is used to evaluate the CCIC50 of our compounds except that the virus is omitted.

HIV-1 integrase = HIV-1 integrase (Human immunodeficiency virus type 1 group M subtype B, UniProt P12497); experiment: HIV-1 integrase inhibition assay in vitro (radiolabeled duplex substrate, U5 end of HIV LTR); type: biochemical
Experimental: For the purpose of Table 1, the HIV-1 integrase inhibition assay was carried out following a known procedure (Burke, Jr. T. R. et al., J. Med. Chem. 38, 4171-4178 (1995)). A suitable radiolabeled duplex substrate corresponding to the U5 end of the HIV LTR was used.

[1] = system: HIV-1 laboratory viral strain NL4.3; experiment: Anti-viral assay in vitro (MTT, infected MT-4 cells); type: cell-based; settings: reduce virus replication in cell culture by 50%, six days
Experimental: as §1, §2

[2] = IC50, concentration of drug required to reduce the enzyme activity by 50%
[3] = Human immunodeficiency virus 1, MT4, 144 h

SMILES	CCIC50 (MT-4 cell line; human, 6 days) [µM]	IC50 (HIV-1 integrase; [2]) [µM]	EC50 [1, 3] [µM]	CCIC50 (MT-4 cell line; reduce cell survival by 50%, MTT assay, virus omitted) [µM]	IC50 (HIV-1 integrase; concentration of drug required to reduce the enzyme activity by 50%, read-out: IC50) [µM]	EC50 ([1]; read-out: EC50) [µM]	EC50 [1] [µM]
Cc1nc(N=Nc2cccc(S(=O)(=O)N3CCOCC3)c2)c(COP(=O)(O)O)c(C=O)c1O [Example 27, 6-[3-(Morpholinesulfamoyl)phenylazo]-pyridoxal-5-phosphate]	>100	1.1	27.5	–	–	–	–
Cc1nc(N=Nc2cccc(C(=O)Nc3cccnc3)c2)c(COP(=O)(O)O)c(C=O)c1O [Example 28, 6-[3-(3-Pyridylcarbamoyl)phenylazo]-pyridoxal-5-phosphate]	50	3.25	6.25	–	–	–	–
Cc1nc(N=Nc2cccc(C(=O)Nc3ccccn3)c2)c(COP(=O)(O)O)c(C=O)c1O [Example 29, 6-[3-(2-Pyridylcarbamoyl)phenylazo]-pyridoxal-5-phosphate]	>100	3.85	24	–	–	–	–
Cc1nc(N=Nc2cccc(C(=O)Nc3ccncc3)c2)c(COP(=O)(O)O)c(C=O)c1O [Example 30, 6-[3-(4-Pyridylcarbamoyl)phenylazo]-pyridoxal-5-phosphate]	87	3.15	20	–	–	–	–
Cc1nc(N=Nc2cccc(C(=O)Nc3cccc4cnccc34)c2)c(COP(=O)(O)O)c(C=O)c1O [Example 31, 6-[3-(5-Isoquinolylcarbamoyl)phenylazo]-pyridoxal-5-phosphate]	>100	3.25	15	–	–	–	–
Cc1nc(N=Nc2cccc(C(=O)Nc3cccc4c3CCCN4)c2)c(COP(=O)(O)O)c(C=O)c1O [Example 37, 6-[3-(5-(1,2,3,4-Tetrahydroquinolyl)carbamoyl)phenylazo]-pyridoxal-5-phosphate]	84	3.3	26	–	–	–	–
Cc1ccc(C(=O)O)cc1N=Nc1nc(C)c(O)c(C=O)c1COP(=O)(O)O [Example 38, 6-(5-Carboxy-2-methylphenylazo)-pyridoxal-5-phosphate]	>100	2.3	50	–	–	–	–
Cc1nc(N=Nc2cccc(C(=O)O)c2Cl)c(COP(=O)(O)O)c(C=O)c1O [Example 39, 6-(3-Carboxy-2-chlorophenylazo)-pyridoxal-5-phosphate]	>100	2.6	1.8	–	–	–	–
Cc1nc(N=Nc2cc(C(=O)O)ccc2Cl)c(COP(=O)(O)O)c(C=O)c1O [Example 40, 6-(5-Carboxy-2-chlorophenylazo)-pyridoxal-5-phosphate]	–	–	–	>100	3.35	17	–
Cc1nc(N=Nc2cc(F)c(F)c(C(=O)O)c2F)c(COP(=O)(O)O)c(C=O)c1O [Example 41, 6-(3-Carboxy-2,4,5-trifluorophenylazo)-pyridoxal-5-phosphate]	>100	2	14	–	–	–	–
Cc1nc(N=Nc2cccc(C(=O)O)c2C(=O)O)c(COP(=O)(O)O)c(C=O)c1O [Example 47, 6-(2,3-Dicarboxyphenylazo)-pyridoxal-5-phosphate]	17	0.165	10	–	–	–	–
Cc1nc(N=Nc2ccccc2C(=O)O)c(COP(=O)(O)O)c(C=O)c1O [Example 48, 6-(2-Carboxyphenylazo)-pyridoxal-5-phosphate]	>100	0.345	> 20	–	–	–	–
Cc1nc(N=Nc2cc(C(=O)O)cc(C(=O)O)c2)c(COP(=O)(O)O)c(C=O)c1O [Example 49, 6-(3,5-Dicarboxyphenylazo)-pyridoxal-5-phosphate Methanesulfonic Acid Salt]	12	0.5	–	–	–	–	0.275
Cc1nc(N=Nc2cc(C(=O)O)cc(C(=O)O)c2)c(COP(=O)(O)O)c(C=O)c1O [Example 50, 6-(3,5-Dicarboxyphenylazo)-pyridoxal-5-phosphate Penta-potassium Salt]	>100	0.47	–	–	–	–	5
CCOC(OCC)c1c(O)c(C)nc(N=Nc2cc(C(=O)O)cc(C(=O)O)c2)c1COP(=O)(O)O [Example 51, 6-(3,5-Dicarboxyphenylazo)-pyridoxal-5-phosphate Diethylacetal]	>100	0.125	0.35	–	–	–	–
Cc1nc(N=Nc2cc(C(=O)O)cc(C(=O)O)c2)c(COP(=O)(O)O)c(C=NO)c1O [Example 52, 6-(3,5-Dicarboxyphenylazo)-pyridoxal-5-phosphate Oxime]	60	8.75	15	–	–	–	–
